Biological target: T1, EtLsc (Erwinia tasmaniensis levansucrase) (Erwinia tasmaniensis, UniProt B2VCC3)
T1 construct: gene lsc; lsc gene amplified from Et1/99, pMCSG49 vector, E. coli BL21(DE3) Star pLysS; His6 tag cleaved with TEV protease; IMAC and size exclusion; catalytic triad Asp46, Asp203, Glu287
Test: microscale thermophoresis, label-free (Monolith NT.LabelFree)
Type: binding

T1 sequence (B2VCC3 entry or part of it): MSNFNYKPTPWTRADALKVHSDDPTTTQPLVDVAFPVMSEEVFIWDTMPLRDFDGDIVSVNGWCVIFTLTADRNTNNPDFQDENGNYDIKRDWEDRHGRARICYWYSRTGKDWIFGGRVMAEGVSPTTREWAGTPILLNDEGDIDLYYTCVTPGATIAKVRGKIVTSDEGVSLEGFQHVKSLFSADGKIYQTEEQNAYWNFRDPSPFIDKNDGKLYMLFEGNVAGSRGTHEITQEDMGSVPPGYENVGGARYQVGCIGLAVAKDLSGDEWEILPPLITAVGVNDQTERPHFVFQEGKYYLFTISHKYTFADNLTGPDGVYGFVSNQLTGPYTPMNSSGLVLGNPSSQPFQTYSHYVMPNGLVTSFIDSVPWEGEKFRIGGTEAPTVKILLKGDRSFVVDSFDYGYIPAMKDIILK

## OCC[C@H](O)CO (mixture of isomers) [(S)-1,2,4-butanetriol]
  Kd: 84.9 ± 13.4 mM

From publication PMC9350837, “Erwinia tasmaniensis levansucrase shows enantiomer selection for (S)-1,2,4-butanetriol” (Acta Crystallographica. Section F, Structural Biology …, 2022)
